We go through two compounds from article PMC4930285 (Biomolecules & Therapeutics, 2016).

By EC50 is commonly meant the concentration that produces a half-maximal response. Read a high EC50 as weaker potency. Broadly, the IC50 is the point on the concentration scale where inhibition reaches its midpoint.

Each structure is given as a SMILES string.

The target of assay [1] is T1, α7 nicotinic acetylcholine receptor (α7 nAChR) (Homo sapiens, UniProt P36544). Nature of the assay: two-electrode voltage clamp in Xenopus oocytes. The class given is cell-based. Background: In two-electrode clamp one electrode senses voltage and the other passes current.
The target in assay [2] is T1, α7 nicotinic acetylcholine receptor (α7 nAChR). Put plainly: two-electrode voltage clamp in Xenopus oocytes. The class given is cell-based. The source holds these as a separate data set.

T1 sequence (P36544 23-502): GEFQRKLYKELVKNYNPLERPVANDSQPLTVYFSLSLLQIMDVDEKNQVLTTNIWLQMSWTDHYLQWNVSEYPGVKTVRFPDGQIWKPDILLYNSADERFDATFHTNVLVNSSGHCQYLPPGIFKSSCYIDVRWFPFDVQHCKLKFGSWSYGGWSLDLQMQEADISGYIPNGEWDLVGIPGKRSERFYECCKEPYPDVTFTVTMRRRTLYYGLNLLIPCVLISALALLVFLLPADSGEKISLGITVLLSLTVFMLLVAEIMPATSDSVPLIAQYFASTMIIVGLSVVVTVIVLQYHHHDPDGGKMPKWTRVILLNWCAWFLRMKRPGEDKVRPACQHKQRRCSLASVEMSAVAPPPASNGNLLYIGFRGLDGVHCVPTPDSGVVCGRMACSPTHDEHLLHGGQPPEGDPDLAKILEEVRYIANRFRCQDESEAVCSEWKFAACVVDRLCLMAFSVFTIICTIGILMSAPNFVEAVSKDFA

As to `O=c1c(O)c(-c2ccc(O)c(O)c2)oc2cc(O)cc(O)c12` [Que, quercetin], in assay [1], the response was half-maximal at 35.1 ± 3.8 µM (EC50). In assay [2], `C[C@@H]1O[C@@H](OC[C@H]2O[C@@H](Oc3c(-c4ccc(O)c(O)c4)oc4cc(O)cc(O)c4c3=O)[C@H](O)[C@@H](O)[C@@H]2O)[C@H](O)[C@H](O)[C@H]1O` [Rutin, quercetin-3-O-rutinoside] registered an IC50 of 70.4 ± 3.6 µM.
